BigSolDB 2.1

CCCCS(=O)(=O)N[C@@H](Cc1ccc(OCCCCC2CCNCC2)cc1)C(=O)O
solubility (mole fraction) (in ethanol, 278.15 K): 0.000129
solubility (mole fraction) (in ethanol, 283.15 K): 0.000156
solubility (mole fraction) (in ethanol, 288.15 K): 0.000183
solubility (mole fraction) (in ethanol, 293.15 K): 0.000216
solubility (mole fraction) (in ethanol, 298.15 K): 0.00025
solubility (mole fraction) (in ethanol, 303.15 K): 0.000288
solubility (mole fraction) (in ethanol, 308.15 K): 0.000329
solubility (mole fraction) (in ethanol, 313.15 K): 0.000373
solubility (mole fraction) (in ethanol, 318.15 K): 0.000427
solubility (mole fraction) (in ethanol, 323.15 K): 0.00049
solubility (mole fraction) (in ethylene glycol, 278.15 K): 4.7e-05
solubility (mole fraction) (in ethylene glycol, 283.15 K): 5.7e-05
solubility (mole fraction) (in ethylene glycol, 288.15 K): 6.77e-05
solubility (mole fraction) (in ethylene glycol, 293.15 K): 8.02e-05
solubility (mole fraction) (in ethylene glycol, 298.15 K): 9.46e-05
solubility (mole fraction) (in ethylene glycol, 303.15 K): 0.000109
solubility (mole fraction) (in ethylene glycol, 308.15 K): 0.000125
solubility (mole fraction) (in ethylene glycol, 313.15 K): 0.000142
solubility (mole fraction) (in ethylene glycol, 318.15 K): 0.00016
solubility (mole fraction) (in ethylene glycol, 323.15 K): 0.000181
solubility (mole fraction) (in isopropanol, 278.15 K): 7.48e-05
solubility (mole fraction) (in isopropanol, 283.15 K): 9.32e-05
solubility (mole fraction) (in isopropanol, 288.15 K): 0.000108
solubility (mole fraction) (in isopropanol, 293.15 K): 0.00013
solubility (mole fraction) (in isopropanol, 298.15 K): 0.000153
solubility (mole fraction) (in isopropanol, 303.15 K): 0.000176
solubility (mole fraction) (in isopropanol, 308.15 K): 0.0002
solubility (mole fraction) (in isopropanol, 313.15 K): 0.00023
solubility (mole fraction) (in isopropanol, 318.15 K): 0.000265
solubility (mole fraction) (in isopropanol, 323.15 K): 0.000301
solubility (mole fraction) (in methanol, 278.15 K): 0.000306
solubility (mole fraction) (in methanol, 283.15 K): 0.000375
solubility (mole fraction) (in methanol, 288.15 K): 0.000443
solubility (mole fraction) (in methanol, 293.15 K): 0.00052
solubility (mole fraction) (in methanol, 298.15 K): 0.000617
solubility (mole fraction) (in methanol, 303.15 K): 0.00071
solubility (mole fraction) (in methanol, 308.15 K): 0.000836
solubility (mole fraction) (in methanol, 313.15 K): 0.000957
solubility (mole fraction) (in methanol, 318.15 K): 0.0011
solubility (mole fraction) (in methanol, 323.15 K): 0.00125
solubility (mole fraction) (in water, 278.15 K): 9.32e-07
solubility (mole fraction) (in water, 283.15 K): 1.1e-06
solubility (mole fraction) (in water, 288.15 K): 1.32e-06
solubility (mole fraction) (in water, 293.15 K): 1.55e-06
solubility (mole fraction) (in water, 298.15 K): 1.83e-06
solubility (mole fraction) (in water, 303.15 K): 2.08e-06
solubility (mole fraction) (in water, 308.15 K): 2.42e-06
solubility (mole fraction) (in water, 313.15 K): 2.75e-06
solubility (mole fraction) (in water, 318.15 K): 3.14e-06
solubility (mole fraction) (in water, 323.15 K): 3.59e-06
